Source: PubChem BioAssay (NCI)
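The compound was tested at five concentrations on cells cultured in 96-well plates, with a 48-hour exposure period. TGI denotes the concentration required for complete inhibition of growth.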 Where a SMILES comes first, the peptide text is derived from it. [ ]: non-standard residue; d: D form. The star is where a group is joined. Iva = CC[C](C)(N)C(=O)O; Boc = CC(C)(C)OC(=O)*; X52 = C1CCC(=NO*)C1

Assays:
Test in all cases: inhibition of tumour cell growth, NCI panel, 48 h
A549 NSCLC = test system: A549 NSCLC
COLO 205 colon = test system: COLO 205 colon
DLD-1 colon = test system: DLD-1 colon
DMS 114 small cell lung = test system: DMS 114 small cell lung
DMS 273 small cell lung = test system: DMS 273 small cell lung
HCC-2998 colon = test system: HCC-2998 colon
HOP-92 NSCLC = test system: HOP-92 NSCLC
KM12 colon = test system: KM12 colon
KM20L2 colon = test system: KM20L2 colon
NCI-H460 lung = test system: NCI-H460 lung
OVCAR-4 ovarian = test system: OVCAR-4 ovarian
RPMI-8226 leukemia = test system: RPMI-8226 leukemia
SN12C renal = test system: SN12C renal
SNB-19 CNS = test system: SNB-19 CNS
SNB-78 CNS = test system: SNB-78 CNS
IGROV1 ovarian = test system: IGROV1 ovarian
MDA-MB-231 breast = test system: MDA-MB-231 breast
MDA-MB-435 = test system: MDA-MB-435
T-47D breast = test system: T-47D breast
UO-31 renal = test system: UO-31 renal

| SMILES | TGI (A549 NSCLC) [µM] | TGI (COLO 205 colon) [µM] | TGI (DLD-1 colon) [µM] | TGI (DMS 114 small cell lung) [µM] | TGI (DMS 273 small cell lung) [µM] | TGI (HCC-2998 colon) [µM] | TGI (HOP-92 NSCLC) [µM] | TGI (KM12 colon) [µM] | TGI (KM20L2 colon) [µM] | TGI (NCI-H460 lung) [µM] | TGI (OVCAR-4 ovarian) [µM] | TGI (RPMI-8226 leukemia) [µM] | TGI (SN12C renal) [µM] | TGI (SNB-19 CNS) [µM] | TGI (SNB-78 CNS) [µM] | TGI (IGROV1 ovarian) [µM] | TGI (MDA-MB-231 breast) [µM] | TGI (MDA-MB-435) [µM] | TGI (T-47D breast) [µM] | TGI (UO-31 renal) [µM] |
| --- | --- | --- | --- | --- | --- | --- | --- | --- | --- | --- | --- | --- | --- | --- | --- | --- | --- | --- | --- | --- |
| COc1ccc(C2SCC(=O)N2NC(=O)c2ccncc2)cc1F (centres undefined) | > 100 | > 100 | > 100 | > 100 | > 100 | > 100 | > 100 | > 100 | > 100 | > 100 | > 100 | > 100 | > 100 | > 100 | > 100 |  |  |  |  |  |
| O=C(Nc1ccccc1)c1cc2ccccc2c(N=Nc2ccc([N+](=O)[O-])cc2)c1O | > 100 | > 100 |  |  |  |  | > 100 | > 100 |  |  | > 100 | > 100 | > 100 | > 100 |  | > 100 | > 100 | > 100 | > 100 | > 100 |
| CCCCN1CN2C(=O)C(C(=O)OCC)C(=O)c3sc4nc(SC)nc1c4c32 (centres undefined) | 39.9 | 35.5 |  |  |  |  | 30.5 | 36 |  | 40.2 | 33.4 | 42.7 | 34.1 | 34.8 |  | 33.5 | 32.6 | 34 | 42.7 | 37.4 |
| CCC(C)(NC(=O)C(C)NC(=O)OC(C)(C)C)C(=O)NC(C)C(=O)NC(C)(CC)C(=O)ON=C1CCCC1 (centres undefined) (Boc-A[Iva]A[Iva]-X52; configuration not given here) |  | > 100 |  |  |  | > 100 | > 100 | > 100 |  | > 100 |  | > 100 | > 100 | > 100 |  | > 100 | > 100 | > 100 | > 100 | > 100 |
| C1CSCCSCCSCCSC1 | > 100 | > 100 |  |  |  | > 100 | > 100 | > 100 |  | > 100 | > 100 | > 100 | > 100 | > 100 |  | > 100 | > 100 | > 100 | > 100 | > 100 |
| CCCC[C@H]1[C@@H](OCOc2ccccc2)COC(=O)N1[C@H](C)c1ccccc1 | 28.4 | > 100 |  |  |  | 35.8 | 54 | 33.5 |  | 32.1 | 43.9 | 60.1 | 21.9 | > 55 |  | > 61.8 | 37.3 | 38.5 | > 40.4 | > 45.1 |
| O=[N+]([O-])c1ccc(N=Nc2c(O)ccc3ccccc23)c([N+](=O)[O-])c1 | > 100 | > 100 |  |  |  | > 100 | > 100 | > 100 |  | > 100 | > 100 | > 100 | > 100 | > 100 |  | > 100 | > 100 | > 100 | > 100 | > 100 |
| CC(C)OP(=O)(OC(C)C)c1nc(-c2ccccc2)n(-c2ccc([N+](=O)[O-])cc2)n1 | > 100 | > 100 | > 100 | > 100 | > 100 | > 100 | > 100 | > 100 | > 100 | > 100 | > 100 | > 100 | > 100 | > 100 |  | > 100 |  |  |  | > 100 |
| COc1cc2cc3c4cc(OC)c(OC)cc4cc[n+]3cc2cc1OC | > 100 | > 100 | > 100 | 6.6 | > 100 | > 100 | > 100 | > 100 | > 100 | > 100 | > 100 | > 100 | > 100 | > 100 | > 100 | > 100 |  |  |  | > 100 |
| O=P1(Oc2ccc(Cl)cc2Cl)Oc2ccc3ccccc3c2-c2c(ccc3ccccc23)O1 | > 100 | > 100 | > 100 |  | > 93.2 | 61.4 | 50.1 | > 90.4 | > 76.2 | > 90.6 | 94.2 | 48 | > 100 | 82.8 | > 83.8 | > 71.8 |  |  |  | 41.3 |
